Experimental data taken from ChEMBL document CHEMBL5131517 (ACS Med Chem Lett, 2022).
pEC50, pKi: −log10 of the molar value.

Tests used:
[1] = target: 5-hydroxytryptamine receptor 1D (Homo sapiens, UniProt P28221); experiment: Binding affinity to 5HT1D receptor (unknown origin) assessed as inhibition constant
[2] = target: Mu-type opioid receptor (Homo sapiens) (UniProt P35372); experiment: Inhibition of MOR receptor (unknown origin); conditions: concentration not given here
[3] = target: T1, 5-hydroxytryptamine receptor 2B (Homo sapiens, UniProt P41595); experiment: Binding affinity to 5HT2B receptor (unknown origin) assessed as inhibition constant
T1 sequence (P41595 whole entry): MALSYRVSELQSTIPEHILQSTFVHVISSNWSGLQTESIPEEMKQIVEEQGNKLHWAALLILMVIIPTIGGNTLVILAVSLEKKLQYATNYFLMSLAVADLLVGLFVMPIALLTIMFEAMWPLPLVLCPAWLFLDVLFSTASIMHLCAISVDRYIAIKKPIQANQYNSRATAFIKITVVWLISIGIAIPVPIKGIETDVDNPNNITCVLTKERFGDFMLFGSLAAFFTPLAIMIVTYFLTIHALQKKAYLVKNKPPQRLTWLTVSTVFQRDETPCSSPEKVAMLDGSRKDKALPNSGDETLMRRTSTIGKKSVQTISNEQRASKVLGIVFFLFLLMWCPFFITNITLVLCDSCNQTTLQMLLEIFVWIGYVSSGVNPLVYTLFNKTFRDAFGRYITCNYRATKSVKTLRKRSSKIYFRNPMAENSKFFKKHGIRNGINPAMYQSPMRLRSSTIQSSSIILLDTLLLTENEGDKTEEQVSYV

[4] = target: T2, Muscarinic acetylcholine receptor M4 (Homo sapiens) (UniProt P08173); experiment: Inhibition of M4 receptor (unknown origin); conditions: concentration not given here
T2 sequence (whole entry): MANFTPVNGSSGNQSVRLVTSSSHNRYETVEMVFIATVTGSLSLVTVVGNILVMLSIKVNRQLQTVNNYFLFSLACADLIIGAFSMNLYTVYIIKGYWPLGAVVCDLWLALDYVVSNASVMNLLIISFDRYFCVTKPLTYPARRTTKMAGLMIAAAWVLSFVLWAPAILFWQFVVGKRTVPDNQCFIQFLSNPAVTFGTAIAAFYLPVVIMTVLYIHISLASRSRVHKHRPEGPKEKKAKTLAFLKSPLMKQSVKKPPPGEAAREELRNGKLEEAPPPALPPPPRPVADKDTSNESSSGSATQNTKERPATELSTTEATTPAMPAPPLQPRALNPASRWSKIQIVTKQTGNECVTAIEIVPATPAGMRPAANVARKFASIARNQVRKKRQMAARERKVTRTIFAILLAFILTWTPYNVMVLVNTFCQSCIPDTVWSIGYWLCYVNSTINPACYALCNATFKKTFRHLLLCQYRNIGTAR

[5] = target: Sigma non-opioid intracellular receptor 1 (Homo sapiens, UniProt Q99720); experiment: Binding affinity to sigma 1 receptor (unknown origin) assessed as inhibition constant
Chain of Sigma non-opioid intracellular receptor 1 (Q99720 whole entry): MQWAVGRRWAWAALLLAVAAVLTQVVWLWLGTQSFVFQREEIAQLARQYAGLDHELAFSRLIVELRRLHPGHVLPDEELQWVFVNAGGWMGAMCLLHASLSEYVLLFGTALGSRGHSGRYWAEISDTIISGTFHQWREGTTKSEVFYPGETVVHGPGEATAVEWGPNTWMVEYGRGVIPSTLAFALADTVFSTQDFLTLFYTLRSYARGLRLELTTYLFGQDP

[6] = target: T3, Alpha-2A adrenergic receptor (Homo sapiens) (UniProt P08913); experiment: Inhibition of alpha2A receptor (unknown origin); conditions: concentration not given here
T3 sequence (whole entry): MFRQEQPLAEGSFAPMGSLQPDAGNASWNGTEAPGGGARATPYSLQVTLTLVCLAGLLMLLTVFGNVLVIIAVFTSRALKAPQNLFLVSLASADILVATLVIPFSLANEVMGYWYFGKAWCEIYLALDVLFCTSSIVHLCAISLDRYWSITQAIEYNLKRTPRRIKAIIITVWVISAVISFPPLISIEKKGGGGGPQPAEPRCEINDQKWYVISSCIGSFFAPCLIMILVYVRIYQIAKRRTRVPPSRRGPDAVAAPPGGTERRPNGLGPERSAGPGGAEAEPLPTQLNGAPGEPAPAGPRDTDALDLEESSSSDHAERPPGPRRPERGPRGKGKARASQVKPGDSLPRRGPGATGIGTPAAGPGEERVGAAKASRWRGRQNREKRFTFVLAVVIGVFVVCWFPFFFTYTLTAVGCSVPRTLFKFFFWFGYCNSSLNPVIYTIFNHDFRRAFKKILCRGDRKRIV

[7] = target: T4, 5-hydroxytryptamine receptor 1A (Homo sapiens, UniProt P08908); experiment: Binding affinity to 5HT1A receptor (unknown origin) assessed as inhibition constant
T4 sequence (P08908 whole entry): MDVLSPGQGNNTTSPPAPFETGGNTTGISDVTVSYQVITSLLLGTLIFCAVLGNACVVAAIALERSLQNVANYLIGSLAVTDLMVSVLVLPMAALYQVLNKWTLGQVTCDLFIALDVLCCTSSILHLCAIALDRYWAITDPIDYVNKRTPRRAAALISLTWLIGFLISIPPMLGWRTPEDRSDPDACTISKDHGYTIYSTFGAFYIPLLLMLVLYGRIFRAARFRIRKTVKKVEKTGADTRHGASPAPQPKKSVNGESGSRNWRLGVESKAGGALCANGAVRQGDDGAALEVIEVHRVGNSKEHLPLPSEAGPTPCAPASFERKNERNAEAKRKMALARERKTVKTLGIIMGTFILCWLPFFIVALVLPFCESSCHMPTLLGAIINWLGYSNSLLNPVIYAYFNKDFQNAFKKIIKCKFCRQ

[8] = target: T5, Muscarinic acetylcholine receptor M1 (Homo sapiens) (UniProt P11229); experiment: Inhibition of M1 receptor (unknown origin); conditions: concentration not given here
T5 sequence (whole entry): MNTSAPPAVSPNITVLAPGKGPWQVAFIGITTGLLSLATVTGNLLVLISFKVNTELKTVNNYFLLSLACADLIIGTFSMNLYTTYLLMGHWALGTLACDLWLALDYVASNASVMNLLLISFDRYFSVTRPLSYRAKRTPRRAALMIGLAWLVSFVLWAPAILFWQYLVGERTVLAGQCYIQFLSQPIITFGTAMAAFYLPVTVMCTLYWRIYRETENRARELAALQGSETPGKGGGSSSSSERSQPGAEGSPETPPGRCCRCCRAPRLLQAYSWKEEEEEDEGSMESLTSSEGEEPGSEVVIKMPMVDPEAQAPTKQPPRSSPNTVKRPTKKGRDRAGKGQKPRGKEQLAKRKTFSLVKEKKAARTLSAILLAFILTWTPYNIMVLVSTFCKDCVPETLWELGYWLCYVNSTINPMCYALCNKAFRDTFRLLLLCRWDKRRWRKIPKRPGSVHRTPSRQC

[9] = target: T1, 5-hydroxytryptamine receptor 2B; experiment: Agonist activity at human 5HT2B receptor stably expressed in Flp-In-T-REx-293 cells assessed as increase in Gq-mediated calcium flux by Fluo-4 direct dye based FLIPR Tetra assay; type: functional, cell-based; conditions: for pEC50: read-out: EC50
[10] = target: Kappa-type opioid receptor (Homo sapiens) (UniProt P41145); experiment: Inhibition of KOR receptor (unknown origin); conditions: concentration not given here
Chain of Kappa-type opioid receptor (Homo sapiens) (P41145 whole entry): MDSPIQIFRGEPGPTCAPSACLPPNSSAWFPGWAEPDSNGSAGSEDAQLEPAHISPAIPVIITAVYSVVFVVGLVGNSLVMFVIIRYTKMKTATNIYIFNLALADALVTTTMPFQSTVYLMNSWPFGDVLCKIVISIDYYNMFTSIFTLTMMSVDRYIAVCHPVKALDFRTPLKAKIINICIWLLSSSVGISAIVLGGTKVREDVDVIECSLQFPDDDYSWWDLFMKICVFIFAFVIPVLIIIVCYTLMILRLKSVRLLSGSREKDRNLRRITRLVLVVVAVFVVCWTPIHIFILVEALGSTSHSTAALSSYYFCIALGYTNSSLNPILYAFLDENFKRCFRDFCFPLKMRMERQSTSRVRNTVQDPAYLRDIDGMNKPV

[11] = target: 5-hydroxytryptamine receptor 1E (Homo sapiens, UniProt P28566); experiment: Binding affinity to 5HT1E receptor (unknown origin) assessed as inhibition constant
Chain of 5-hydroxytryptamine receptor 1E (P28566 whole entry): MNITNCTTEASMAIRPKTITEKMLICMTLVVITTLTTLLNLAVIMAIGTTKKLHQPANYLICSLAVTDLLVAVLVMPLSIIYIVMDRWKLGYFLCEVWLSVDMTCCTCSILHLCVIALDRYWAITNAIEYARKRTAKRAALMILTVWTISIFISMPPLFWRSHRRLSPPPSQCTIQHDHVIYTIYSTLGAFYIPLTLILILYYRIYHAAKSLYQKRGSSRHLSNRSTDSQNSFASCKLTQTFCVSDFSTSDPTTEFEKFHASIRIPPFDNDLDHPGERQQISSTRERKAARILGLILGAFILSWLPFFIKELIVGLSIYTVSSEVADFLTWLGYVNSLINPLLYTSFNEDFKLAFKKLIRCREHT

[12] = target: T6, Alpha-2C adrenergic receptor (Homo sapiens) (UniProt P18825); experiment: Inhibition of alpha2c (unknown origin); conditions: concentration not given here
T6 sequence (whole entry): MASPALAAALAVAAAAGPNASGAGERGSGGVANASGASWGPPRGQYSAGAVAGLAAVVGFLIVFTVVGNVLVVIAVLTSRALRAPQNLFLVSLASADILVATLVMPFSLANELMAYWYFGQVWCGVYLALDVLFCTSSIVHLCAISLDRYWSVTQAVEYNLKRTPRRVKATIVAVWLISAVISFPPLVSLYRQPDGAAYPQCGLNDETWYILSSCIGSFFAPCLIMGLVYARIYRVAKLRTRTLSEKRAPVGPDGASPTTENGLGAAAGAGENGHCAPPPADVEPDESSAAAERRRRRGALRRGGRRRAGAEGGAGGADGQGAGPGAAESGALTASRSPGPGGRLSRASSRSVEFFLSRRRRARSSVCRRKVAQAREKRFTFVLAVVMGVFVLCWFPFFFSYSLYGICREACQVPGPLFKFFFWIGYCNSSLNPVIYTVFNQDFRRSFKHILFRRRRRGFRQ

[13] = target: D(1A) dopamine receptor (Homo sapiens) (UniProt P21728); experiment: Inhibition of D1 receptor (unknown origin); conditions: concentration not given here
Chain of D(1A) dopamine receptor (Homo sapiens) (P21728 whole entry): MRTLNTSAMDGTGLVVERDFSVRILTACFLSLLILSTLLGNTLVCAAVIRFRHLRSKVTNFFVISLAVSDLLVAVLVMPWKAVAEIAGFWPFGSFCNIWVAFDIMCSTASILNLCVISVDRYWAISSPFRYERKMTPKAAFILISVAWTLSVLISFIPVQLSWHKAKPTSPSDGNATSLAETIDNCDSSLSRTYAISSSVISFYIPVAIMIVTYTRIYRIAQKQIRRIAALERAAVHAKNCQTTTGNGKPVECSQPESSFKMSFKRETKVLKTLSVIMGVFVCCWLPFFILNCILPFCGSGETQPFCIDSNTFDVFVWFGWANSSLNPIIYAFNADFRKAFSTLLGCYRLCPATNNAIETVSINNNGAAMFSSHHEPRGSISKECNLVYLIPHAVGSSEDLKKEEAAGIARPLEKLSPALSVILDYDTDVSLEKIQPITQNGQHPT

[14] = target: Histamine H3 receptor (Homo sapiens) (UniProt Q9Y5N1); experiment: Inhibition of H3 receptor (unknown origin); conditions: concentration not given here
Chain of Histamine H3 receptor (Homo sapiens) (Q9Y5N1 whole entry): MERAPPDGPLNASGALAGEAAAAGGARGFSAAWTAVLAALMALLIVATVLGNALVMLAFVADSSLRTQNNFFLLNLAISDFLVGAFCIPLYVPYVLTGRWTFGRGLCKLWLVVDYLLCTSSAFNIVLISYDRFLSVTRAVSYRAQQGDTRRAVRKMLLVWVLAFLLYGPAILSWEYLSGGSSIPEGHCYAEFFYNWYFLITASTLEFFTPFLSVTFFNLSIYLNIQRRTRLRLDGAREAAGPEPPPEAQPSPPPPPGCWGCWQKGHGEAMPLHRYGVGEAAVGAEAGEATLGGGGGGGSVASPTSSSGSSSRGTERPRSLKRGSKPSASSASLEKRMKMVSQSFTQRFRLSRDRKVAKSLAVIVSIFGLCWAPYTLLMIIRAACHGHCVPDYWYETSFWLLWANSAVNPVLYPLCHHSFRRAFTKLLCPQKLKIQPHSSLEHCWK

Chain of 5-hydroxytryptamine receptor 1D (P28221 whole entry): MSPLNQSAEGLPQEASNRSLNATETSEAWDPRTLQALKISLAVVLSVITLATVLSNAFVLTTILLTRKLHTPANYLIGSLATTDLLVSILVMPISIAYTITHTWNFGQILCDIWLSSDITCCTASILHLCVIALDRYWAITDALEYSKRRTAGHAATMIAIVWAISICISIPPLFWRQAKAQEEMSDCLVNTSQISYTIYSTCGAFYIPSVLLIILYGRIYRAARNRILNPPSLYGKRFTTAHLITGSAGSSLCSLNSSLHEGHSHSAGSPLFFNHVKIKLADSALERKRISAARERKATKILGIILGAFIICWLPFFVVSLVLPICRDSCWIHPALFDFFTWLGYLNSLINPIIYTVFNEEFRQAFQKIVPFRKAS
Chain of Mu-type opioid receptor (Homo sapiens) (P35372 whole entry): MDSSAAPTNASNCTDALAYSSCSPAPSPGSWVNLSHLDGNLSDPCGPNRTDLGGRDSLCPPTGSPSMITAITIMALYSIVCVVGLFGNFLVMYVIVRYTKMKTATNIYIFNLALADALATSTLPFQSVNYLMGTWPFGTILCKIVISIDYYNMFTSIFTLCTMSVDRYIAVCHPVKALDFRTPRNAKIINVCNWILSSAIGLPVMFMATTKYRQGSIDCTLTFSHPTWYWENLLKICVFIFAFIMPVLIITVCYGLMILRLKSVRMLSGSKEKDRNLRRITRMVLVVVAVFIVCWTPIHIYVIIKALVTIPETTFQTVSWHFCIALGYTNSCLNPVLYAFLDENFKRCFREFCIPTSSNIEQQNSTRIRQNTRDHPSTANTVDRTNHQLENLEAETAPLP

Row | pKi [1] | inhibition [2] | pKi [3] | inhibition [4] | pKi [5] | inhibition [6] | pKi [7] | inhibition [8] | pEC50 [9] | inhibition [10] | pKi [11] | inhibition [12] | inhibition [13] | inhibition [14] | EC50 ([9]; read-out: pEC50 (converted)) | SMILES
1 | 7.50 | < 50% | 8.34 | < 50% | 5.99 | < 50% | 7.10 | < 50% | 8.51 | < 50% | 5.76 | < 50% | < 50% | < 50% | – | COc1ccc(C2NCCc3c2[nH]c2ccc(Cl)cc32)c(O)c1 (centres undefined)
2 | 6.96 | < 50% | 8.35 | < 50% | – | < 50% | 7.03 | < 50% | 8.89 | < 50% | 5.85 | < 50% | < 50% | < 50% | – | COc1ccc(C2NCCc3c2[nH]c2ccc(F)cc32)c(O)c1 (centres undefined)
3 | 7.41 | < 50% | 8.53 | < 50% | 5.83 | < 50% | 7.65 | < 50% | 9.24 | < 50% | 6.18 | < 50% | < 50% | < 50% | – | COc1cc(OC)c(C2NCCc3c2[nH]c2ccc(Cl)cc32)cc1OC (centres undefined)
4 | 6.18 | < 50% | 7.25 | < 50% | 6.12 | < 50% | 5.86 | < 50% | 8.00 | < 50% | – | – | < 50% | < 50% | 11 nM | COc1cc(OC)c(C2NCCc3c2[nH]c2ccc(F)cc32)cc1OC (centres undefined)
